Experiments:
[1] = design: method as in unpublished data; conditions: humans, 14C-labelled pretomanid; ref unpublished data; cited from earlier work
[2] = tested on: CHO-K1 cells; assay: Chromosome aberration assay in CHO cells
Protocol: CHO-K1 cells (American Type Culture Collection) were exposed to pretomanid at 22.5 to 360 μg/mL for 4 hours with and without added S9 mix and for 20 hours without added S9 mix. All cells were harvested 20 hours after treatment initiation. The assay was performed using standard procedures, [13] including duplicate cultures and appropriate negative and positive controls. Under each set of conditions, three test concentrations were evaluated. The highest was the lowest precipitating concentration, and two additional lower concentrations also were evaluated.
After incubation, cells were harvested and placed on slides, which were examined microscopically to determine relative mitotic index and to evaluate metaphase spreads for structural or numerical chromosome aberrations. Where possible, 200 metaphase spreads were evaluated. The mean numbers of aberrations in various cultures were compared to reach conclusions about assay validity and clastogenic potential.

[3] = Plasma exposure in the mouse micronucleus study; assay type: in vivo, mice

SMILES	M50 metabolite as % of the parent compound [1] [%]	Cytotoxicity in CHO cells ([2]; 22.5 to 360 μg/mL, 4 h ±S9, 20 h −S9)	Frequency of chromosome aberrations ([2]; any concentration, P>0.05)	Clastogenic potential in mammalian cells in vitro ([2]; up to 360 μg/mL, 4 h ±S9, 20 h −S9)	Cmax ([3]; male, CD-1(ICR) BR, mouse, single oral dose 2000 mg/kg, plasma) [ng/mL]	AUC(0-t) ([3]; male, CD-1(ICR) BR, mouse, single oral dose 2000 mg/kg, plasma, read-out: Mean AUClast) [µg·h/mL]	Dose proportionality of plasma exposure (Cmax and AUC) ([3]; single oral 125 to 2000 mg/kg)
O=[N+]([O-])c1cn2c(n1)OC[C@@H](O)C2 [M50]	~6	–	–	–	–	–	–
O=[N+]([O-])c1cn2c(n1)OC[C@@H](OCc1ccc(OC(F)(F)F)cc1)C2 [Pretomanid, (6S)-2-nitro-6-{[4-(trifluoromethoxy)benzyl]oxy}-6,7-dihydro-5H-imidazo[2,1-b][1,3]oxazine]	–	no cytotoxicity was observed	did not significantly increase	negative	36000	1140	increased less than proportionally with dose level
